Results from ChEMBL document CHEMBL1146952, “Synthesis and antibacterial activities of chiral 1,3-oxazinan-2-one derivatives” (2006).
In brackets after ≈: the same amount, converted by molar mass. Activity calls are given as the source filed them. The rule behind the calls is not given here.

Experiments:
Format in all cases: functional
Staphylococcus aureus [1] = test: Antibacterial activity against Staphylococcus aureus ATCC 29213
Staphylococcus aureus [2] = test: Antibacterial activity against Staphylococcus aureus ATCC 43300
Enterococcus faecalis = test: Antibacterial activity against Enterococcus faecalis ATCC 29212
Bacillus subtilis = test: Antibacterial activity against Bacillus subtilis PY79

Structure (SMILES) | MIC50 (Staphylococcus aureus [1]) | MIC50 (Staphylococcus aureus [2]) | MIC50 (Enterococcus faecalis) | MIC50 (Bacillus subtilis) | MIC90 (Staphylococcus aureus [1]) [µg/mL] | MIC90 (Bacillus subtilis) [µg/mL] | MIC90 (Staphylococcus aureus [2]) [µg/mL] | MIC90 (Enterococcus faecalis) [µg/mL]
CCN1CC[C@@H](CN(Cc2ccccc2)Cc2ccc([N+](=O)[O-])cc2)OC1=O | inactive | inactive | 45 µg/mL (≈ 117 µM) | inactive | – | – | – | –
CN1C[C@@H](CN(Cc2ccccc2)Cc2ccc(F)cc2)OC1=O | inactive | inactive | inactive | inactive | – | – | – | –
CCN1CC[C@@H](CN(Cc2ccccc2)Cc2cccnc2)OC1=O | inactive | inactive | 238 µg/mL (≈ 701 µM) | inactive | – | – | – | –
CCN1CC[C@@H](CN(Cc2ccccc2)Cc2ccccc2C#N)OC1=O | 130 µg/mL (≈ 358 µM) | 180 µg/mL (≈ 495 µM) | 33 µg/mL (≈ 90.8 µM) | 160 µg/mL (≈ 440 µM) | – | – | – | –
CCN1CC[C@@H](CN(Cc2ccccc2)Cc2cccc([N+](=O)[O-])c2)OC1=O | 90 µg/mL (≈ 235 µM) | 22 µg/mL (≈ 57.4 µM) | 47 µg/mL (≈ 123 µM) | 108 µg/mL (≈ 282 µM) | – | – | – | –
CN1CC[C@@H](CN(Cc2ccccc2)Cc2ccc(C#N)cc2)OC1=O | 200 µg/mL (≈ 572 µM) | inactive | 238 µg/mL (≈ 681 µM) | 238 µg/mL (≈ 681 µM) | – | – | – | –
CN1C[C@@H](CN(Cc2ccccc2)Cc2ccc(F)c(F)c2)OC1=O | 119 µg/mL (≈ 344 µM) | inactive | inactive | 80 µg/mL (≈ 231 µM) | – | – | – | –
O=C(N[C@H](CO)[C@H](O)c1ccc([N+](=O)[O-])cc1)C(Cl)Cl [CHLORAMPHENICOL] | – | – | – | – | 7.44 (≈ 23 µM) | 2 (≈ 6.19 µM) | 7.44 (≈ 23 µM) | 4 (≈ 12.4 µM)
CN1CC[C@@H](CN(Cc2ccccc2)Cc2cccc([N+](=O)[O-])c2)OC1=O | 138 µg/mL (≈ 374 µM) | inactive | 119 µg/mL (≈ 322 µM) | 238 µg/mL (≈ 644 µM) | – | – | – | –
CCN1CC[C@@H](CN(Cc2ccccc2)Cc2ccccn2)OC1=O | inactive | inactive | inactive | inactive | – | – | – | –
CCN1CC[C@@H](CN(Cc2ccccc2)Cc2cccc(OC)c2)OC1=O | 90 µg/mL (≈ 244 µM) | 90 µg/mL (≈ 244 µM) | 80.5 µg/mL (≈ 218 µM) | 95 µg/mL (≈ 258 µM) | – | – | – | –
CN1CC[C@@H](CN(Cc2ccccc2)Cc2ccccc2[N+](=O)[O-])OC1=O | 179 µg/mL (≈ 485 µM) | inactive | 238 µg/mL (≈ 644 µM) | 238 µg/mL (≈ 644 µM) | – | – | – | –
CCN1CC[C@@H](CN(Cc2ccccc2)Cc2ccc(C#N)cc2)OC1=O | 180 µg/mL (≈ 495 µM) | 59.5 µg/mL (≈ 164 µM) | 12 µg/mL (≈ 33 µM) | 10 µg/mL (≈ 27.5 µM) | – | – | – | –
CN1CC[C@@H](CN(Cc2ccccc2)Cc2cccc(C#N)c2)OC1=O | 180 µg/mL (≈ 515 µM) | 238 µg/mL (≈ 681 µM) | 7.4 µg/mL (≈ 21.2 µM) | 180 µg/mL (≈ 515 µM) | – | – | – | –
CN1CC[C@@H](CN(Cc2ccccc2)Cc2ccccc2C#N)OC1=O | 166 µg/mL (≈ 475 µM) | 180 µg/mL (≈ 515 µM) | 59.5 µg/mL (≈ 170 µM) | 180 µg/mL (≈ 515 µM) | – | – | – | –
CCN1CC[C@@H](CN(Cc2ccccc2)Cc2cccc(C#N)c2)OC1=O | 238 µg/mL (≈ 655 µM) | inactive | 45 µg/mL (≈ 124 µM) | 238 µg/mL (≈ 655 µM) | – | – | – | –

The remaining compounds from weak to strong by MIC50 (Staphylococcus aureus [1]), led by results:

MIC50 (Staphylococcus aureus [1]) | MIC50 (Staphylococcus aureus [2]) | MIC50 (Enterococcus faecalis) | MIC50 (Bacillus subtilis) | MIC90 (Staphylococcus aureus [1]) [µg/mL] | MIC90 (Bacillus subtilis) [µg/mL] | MIC90 (Staphylococcus aureus [2]) [µg/mL] | MIC90 (Enterococcus faecalis) [µg/mL] | Structure (SMILES)
87.1 µg/mL (≈ 254 µM) | 119 µg/mL (≈ 348 µM) | 120 µg/mL (≈ 350 µM) | 95 µg/mL (≈ 277 µM) | – | – | – | – | CN1CC[C@@H](CN(Cc2ccccc2)Cc2ccc(F)cc2)OC1=O
85 µg/mL (≈ 245 µM) | 119 µg/mL (≈ 344 µM) | inactive | 90 µg/mL (≈ 260 µM) | – | – | – | – | CN1C[C@@H](CN(Cc2ccccc2)Cc2ccc(F)cc2F)OC1=O
81 µg/mL (≈ 219 µM) | inactive | 119 µg/mL (≈ 322 µM) | 98 µg/mL (≈ 265 µM) | – | – | – | – | CN1CC[C@@H](CN(Cc2ccccc2)Cc2ccc([N+](=O)[O-])cc2)OC1=O
72 µg/mL (≈ 188 µM) | 100 µg/mL (≈ 261 µM) | 43 µg/mL (≈ 112 µM) | 100 µg/mL (≈ 261 µM) | – | – | – | – | CCN1CC[C@@H](CN(Cc2ccccc2)Cc2ccccc2[N+](=O)[O-])OC1=O
64 µg/mL (≈ 180 µM) | 47 µg/mL (≈ 132 µM) | 35 µg/mL (≈ 98.2 µM) | 42.5 µg/mL (≈ 119 µM) | – | – | – | – | CCN1CC[C@@H](CN(Cc2ccccc2)Cc2ccc(F)cc2)OC1=O
50 µg/mL (≈ 139 µM) | 72 µg/mL (≈ 200 µM) | 59.5 µg/mL (≈ 165 µM) | 55 µg/mL (≈ 153 µM) | – | – | – | – | CN1CC[C@@H](CN(Cc2ccccc2)Cc2ccc(F)cc2F)OC1=O
47 µg/mL (≈ 126 µM) | 70 µg/mL (≈ 187 µM) | 59.5 µg/mL (≈ 159 µM) | 77 µg/mL (≈ 206 µM) | – | – | – | – | CCN1CC[C@@H](CN(Cc2ccccc2)Cc2c(F)cccc2F)OC1=O
45 µg/mL (≈ 120 µM) | 50.5 µg/mL (≈ 135 µM) | 59.5 µg/mL (≈ 159 µM) | 38 µg/mL (≈ 101 µM) | – | – | – | – | CCN1CC[C@@H](CN(Cc2ccccc2)Cc2ccc(F)cc2F)OC1=O
40 µg/mL (≈ 107 µM) | 45 µg/mL (≈ 120 µM) | 37 µg/mL (≈ 98.8 µM) | 43 µg/mL (≈ 115 µM) | – | – | – | – | CCN1CC[C@@H](CN(Cc2ccccc2)Cc2cc(F)cc(F)c2)OC1=O
22 µg/mL (≈ 62.4 µM) | 22.5 µg/mL (≈ 63.8 µM) | 8.1 µg/mL (≈ 23 µM) | 26 µg/mL (≈ 73.8 µM) | 29.8 (≈ 84.5 µM) | 59.5 (≈ 169 µM) | – | – | CCN1CC[C@@H](CN(Cc2ccccc2)Cc2ccccc2C)OC1=O
20 µg/mL (≈ 51.4 µM) | 59.5 µg/mL (≈ 153 µM) | inactive | 22 µg/mL (≈ 56.5 µM) | – | – | – | – | CN1C[C@@H](CN(Cc2ccccc2)Cc2ccc(Br)cc2)OC1=O
18 µg/mL (≈ 46.2 µM) | 21 µg/mL (≈ 53.9 µM) | 7.4 µg/mL (≈ 19 µM) | 22 µg/mL (≈ 56.5 µM) | – | – | – | – | CN1C[C@@H](CN(Cc2ccccc2)Cc2ccccc2Br)OC1=O
15 µg/mL (≈ 38.6 µM) | inactive | 13 µg/mL (≈ 33.5 µM) | 29 µg/mL (≈ 74.6 µM) | – | – | – | – | CCN1CC[C@@H](CN(Cc2ccccc2)Cc2ccc3ccccc3c2)OC1=O
11.5 µg/mL (≈ 30.7 µM) | 13 µg/mL (≈ 34.7 µM) | 14.9 µg/mL (≈ 39.8 µM) | 12 µg/mL (≈ 32 µM) | 14.9 (≈ 39.8 µM) | 30 (≈ 80.1 µM) | – | – | CN1CC[C@@H](CN(Cc2ccccc2)Cc2ccc3ccccc3c2)OC1=O
10 µg/mL (≈ 25.7 µM) | 35 µg/mL (≈ 90.1 µM) | 7.4 µg/mL (≈ 19 µM) | 7.6 µg/mL (≈ 19.6 µM) | 14.9 (≈ 38.4 µM) | 30 (≈ 77.2 µM) | – | – | CCN1CC[C@@H](CN(Cc2ccccc2)Cc2cccc3ccccc23)OC1=O
5.6 µg/mL (≈ 13.7 µM) | 6.56 µg/mL (≈ 16.1 µM) | inactive | 5 µg/mL (≈ 12.3 µM) | 9.85 (≈ 24.2 µM) | 7.44 (≈ 18.3 µM) | – | – | CCN1CC[C@@H](CN(Cc2ccccc2)Cc2ccc(Cl)c(Cl)c2)OC1=O
